From publication doi:10.1101/2022.05.04.490172v1 (biorxiv, 2022)

How the values were obtained:
[1] = biological target: T1, BRN2 (POU3F2), purified BRN2^WT (Homo sapiens, UniProt P20265); test: microscale thermophoresis; format: binding
T1 sequence (P20265 264-415): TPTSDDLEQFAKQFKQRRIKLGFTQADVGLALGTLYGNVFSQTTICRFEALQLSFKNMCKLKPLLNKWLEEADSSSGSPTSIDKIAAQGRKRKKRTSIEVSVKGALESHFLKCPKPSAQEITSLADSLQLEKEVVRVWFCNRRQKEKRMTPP

[2] = system: BRN2 (POU3F2), luciferase reporter assay; test: cells; details: for inhibition at 10 µM: read-out: % of Inhibition (Luciferase assay) / 10µM; for inhibition at 30 µM: read-out: % of Inhibition (Luciferase assay) / 30µM; for % of Inhibition (Luciferase assay) / 10µM / % of Inhibition (Luciferase assay) / 30µM: inhibitor

Row | Compound | Kd [1] [nM] | inhibition at 10 µM [2] [%] | inhibition at 30 µM [2] [%] | % of Inhibition (Luciferase assay) / 10µM [2] [%] | % of Inhibition (Luciferase assay) / 30µM [2] [%]
1 | Clc1ccc2cc(-c3csc(-c4ccc[nH]4)n3)oc2c1 [B18-94] | 2040 | – | – | – | –
2 | Cn1c(-c2ccc(-c3ccccc3)o2)nc2ccccc21 [B18] | – | 97.6 | 99.4 | – | –
3 | Cc1cc(C(=O)Nc2ccccc2)c2ccccc2n1 [B-1] | – | 14.6 | 1.27 | – | –
4 | COc1ccc(CNc2ccc(C)cc2)c2ccccc12 [B-2] | – | 19.6 | 24.4 | – | –
5 | Oc1ccccc1/C=N\Nc1nc2ccccc2[nH]1 [B-3] | – | 69.2 | 75.5 | – | –
6 | Fc1ccc(Cl)cc1/C=N/Nc1nc2ccccc2s1 [B-4] | – | 19.5 | 71.4 | – | –
7 | Cc1cc(C(=O)Nc2cc(F)ccc2C)c2ccccc2n1 [B-5] | – | 4.75 | 9.07 | – | –
8 | O=C(Oc1cccc(F)c1)c1cccc2ccccc12 [B-6] | – | -6.6 | -58 | – | –
9 | O=C(Nc1ccc(F)cc1)c1ccccc1 [B-9] | – | -61.5 | -58.1 | – | –
10 | O=C(Nc1cc(Cl)cc(Cl)c1)c1ccccc1 [B-10] | – | – | – | -70.87 | 68.05
11 | c1ccc(NCc2csc3ccccc23)cc1 [B-11] | – | -24.8 | -22.7 | – | –
12 | Cc1cccc(C(=O)Oc2cccc3ccccc23)c1 [B-12] | – | 5.02 | -8.87 | – | –
13 | O=C(Nc1cc(Cl)cc(Cl)c1)c1ccccc1 [B-13] | – | – | – | -8.507 | 43.29
14 | Cc1cc(C(=O)Nc2cccc(Cl)c2)c2cc(F)ccc2n1 [B-14] | – | 41.6 | 32 | – | –
15 | O=C(CSc1nc2ccccc2[nH]1)c1ccccc1 [B-15] | – | -5 | 9.16 | – | –
16 | O=C(CSc1nc2ccccc2[nH]1)c1ccc(Cl)cc1 [B-16] | – | 20.8 | 44.7 | – | –
17 | COc1ccc(CNc2ccccc2)c2ccccc12 [B-17] | – | 3.97 | 12.2 | – | –
18 | Cc1ccc(NCc2c[nH]c3ccccc23)cc1 [B-19] | – | -4.93 | 62 | – | –
19 | C[C@@H]1Cc2ccccc2N1C(=O)c1cccc2ccccc12 [B-20] | – | 15.7 | 35.5 | – | –
20 | Oc1ccccc1/C=N/Nc1nc2ccccc2[nH]1 [B-21] | – | -1.45 | 24.8 | – | –
21 | O=C1c2ccccc2C(=O)N1c1nc(-c2ccccc2)cs1 [B-22] | – | -129 | -138 | – | –
22 | c1ccc([C@H]2COC(c3cccs3)=N2)cc1 [B-23] | – | -121 | -147 | – | –
23 | c1ccc(-c2csc(-c3ccccn3)n2)cc1 [B-24] | – | -145 | -67.1 | – | –
24 | c1ccc(-c2ccc(N3CCOCC3)s2)cc1 [B-25] | – | -2.68 | 51.5 | – | –

Row | Compound | Kd [1] [nM] | inhibition at 10 µM [2] [%] | inhibition at 30 µM [2] [%] | % of Inhibition (Luciferase assay) / 10µM [2] [%] | % of Inhibition (Luciferase assay) / 30µM [2] [%]
25 | Cc1ccc(-c2noc(-c3ccncc3)n2)cc1 [B-26] | – | -147 | -38.9 | – | –
26 | c1ccc(-c2nc(-c3cccnc3)no2)cc1 [B-27] | – | – | -166 | – | –
27 | c1cc(-c2noc(C3CCCCC3)n2)ccn1 [B-28] | – | -139 | -180 | – | –
28 | COc1ccc(O)c(/C=N/Nc2nc3ccccc3[nH]2)c1 [B-29] | – | -44.2 | 22.8 | – | –
29 | Oc1ccc(Cl)cc1/C=N/Nc1nc2ccccc2[nH]1 [B-30] | – | -6.38 | 28.1 | – | –
30 | Oc1c(Cl)cc(Cl)cc1/C=N/Nc1nc2ccccc2[nH]1 [B-31] | – | 22.6 | 12.7 | – | –
31 | c1ccc2c(c1)CCC/C2=N\Nc1nc2ccccc2[nH]1 [B-32] | – | 32.4 | 77.2 | – | –
32 | Cc1cc(C)c2c(c1)/C(=N/Nc1nc3ccccc3[nH]1)CCC2 [B-33] | – | 21.6 | 84.3 | – | –
33 | CC/C(=N\Nc1nc2ccccc2[nH]1)c1ccc(F)cc1 [B-34] | – | 33.1 | 80 | – | –
34 | CC/C(=N\Nc1nc2ccccc2[nH]1)c1ccc(O)cc1 [B-35] | – | 0.336 | 50.1 | – | –
35 | Cn1c(N/N=C2/CCc3c(O)cccc32)nc2ccccc21 [B-36] | – | -39.4 | 28.6 | – | –
36 | CC/C(=N/Nc1nc2ccccc2[nH]1)c1cccc(Cl)c1 [B-37] | – | 19.1 | 80.2 | – | –
37 | C/C(=N/Nc1nc2ccccc2[nH]1)c1ccc(C)cc1 [B-38] | – | 25.9 | 74.3 | – | –
38 | c1ccc2c(c1)CC/C2=N/Nc1ccc2ccccc2n1 [B-39] | – | 99.1 | 99.9 | – | –
39 | c1ccc2c(c1)C(=NNc1nc3ccccc3[nH]1)c1ccccc1-2 [B-40] | – | 93.2 | 98.8 | – | –
40 | C/C(=N/Nc1nc2ccccc2[nH]1)c1ccccc1Cl [B-41] | – | 18.8 | 74.1 | – | –
41 | C/C(=N/Nc1nc2ccccc2[nH]1)c1ccccc1O [B-42] | – | -3.59 | 66.8 | – | –
42 | Oc1ccc(/C=N/Nc2nc3ccccc3[nH]2)c(O)c1O [B-43] | – | 12.5 | -1.16 | – | –
43 | Oc1ccc(/C=N/Nc2nc3ccccc3[nH]2)cc1O [B-44] | – | 0.0894 | 66.2 | – | –
44 | C/C(=N\Nc1nc2ccccc2[nH]1)c1ccc2ccccc2c1O [B-45] | – | 77.2 | 91.8 | – | –
45 | C/C(=N\Nc1nc2ccccc2[nH]1)c1ccc(O)cc1 [B-46] | – | 6.41 | 46.7 | – | –
46 | Cc1ccccc1/C=N/Nc1nc2ccccc2[nH]1 [B-47] | – | -2.99 | 36.5 | – | –
47 | C/C(=N/Nc1nc2ccccc2[nH]1)c1ccc(F)cc1 [B-48] | – | -46.2 | -6.79 | – | –
48 | Oc1ccc(/C=N/Nc2nc3ccccc3[nH]2)c(O)c1 [B-49] | – | 46.1 | 70.8 | – | –

Row | Compound | Kd [1] [nM] | inhibition at 10 µM [2] [%] | inhibition at 30 µM [2] [%] | % of Inhibition (Luciferase assay) / 10µM [2] [%] | % of Inhibition (Luciferase assay) / 30µM [2] [%]
49 | Oc1ccc(/C=N/Nc2nc3ccccc3[nH]2)cc1 [B-50] | – | 66.3 | 72.1 | – | –
50 | Oc1ccc2ccccc2c1/C=N/Nc1nc2ccccc2[nH]1 [B-51] | – | -12.8 | 76.8 | – | –
51 | Oc1ccc(Br)cc1/C=N/Nc1nc2ccccc2[nH]1 [B-52] | – | 27.1 | 21.3 | – | –
52 | Oc1c(Br)cc(Br)cc1/C=N/Nc1nc2ccccc2[nH]1 [B-53] | – | -127 | -80.2 | – | –
53 | Oc1cccc(/C=N/Nc2nc3ccccc3[nH]2)c1 [B-54] | – | -45.1 | -34.4 | – | –
54 | Cc1ccc(-c2nc3ccccc3n2C)o1 [B-55] | – | -120 | -88.1 | – | –
55 | Cn1c(-c2ccc(CO)o2)nc2ccccc21 [B-56] | – | -114 | -134 | – | –
56 | Cn1c(-c2ccco2)nc2ccccc21 [B-57] | – | -138 | -172 | – | –
57 | C/C(=N\Nc1nc2ccccc2[nH]1)c1ccccc1 [B-58] | – | – | -58 | – | –
58 | Oc1cccc(/C=N/Nc2nc3ccccc3[nH]2)c1O [B-59] | – | – | -145 | – | –
59 | Cc1ccccc1/C=N\Nc1nc2ccccc2[nH]1 [B-60] | – | -23.8 | 25.5 | – | –
60 | COc1ccccc1/C=N\Nc1nc2ccccc2[nH]1 [B-61] | – | -172 | -70.4 | – | –
61 | Oc1ccc(/C=N\Nc2nc3ccccc3[nH]2)cc1Cl [B-62] | – | 88.2 | 91.6 | – | –
62 | Cc1ccc(-c2nc3cc(N)ccc3n2C)o1 [B-63] | – | 22 | 44 | – | –
63 | Cn1c(-c2ccco2)nc2cc(N)ccc21 [B-64] | – | 19 | 39 | – | –
64 | COc1ccc(/C=N\Nc2nc3ccccc3[nH]2)cc1O [B-65] | – | 31 | 51 | – | –
65 | c1ccc(-c2ccc(-c3nc4ccccc4[nH]3)o2)cc1 [B-66] | – | 11 | 48 | – | –
66 | Clc1ccc(-c2ccc(-c3nc4ccccc4[nH]3)o2)cc1Cl [B-67] | – | -99.2 | 74 | – | –
67 | Clc1ccccc1-c1ccc(-c2nc3ccccc3[nH]2)o1 [B-68] | – | 54.9 | 94.4 | – | –
68 | Brc1ccc(-c2ccc(-c3nc4ccccc4[nH]3)o2)c(Br)c1 [B-69] | – | 90 | 94 | – | –
69 | Clc1cc(Br)ccc1-c1ccc(-c2nc3ccccc3[nH]2)o1 [B-70] | – | 88.1 | 91.7 | – | –
70 | Clc1ccc(Cl)c(-c2ccc(-c3nc4ccccc4[nH]3)o2)c1 [B-71] | – | 46.2 | – | – | –
71 | Clc1cccc(-c2ccc(-c3nc4cc(Cl)ccc4[nH]3)o2)c1 [B-72] | – | -50.2 | 87.1 | – | –
